In publication PMC12358994, “Proline Homologation in Melanostatin Neuropeptide: Discovery of Potent Modulators of the Dopamine D2 Receptors” (ACS Medicinal Chemistry Letters, 2025):
Peptide text beside a SMILES is read from it.

Columns and labels:
[1] = tested on: differentiated SH-SY5Y neuronal cells; test: MTT reduction assay in differentiated SH-SY5Y cells; format: cell-based, human; conditions: 125 μM, 48 h; positive control for cytotoxicity
Method: (§1) Following a protocol established in our research group, , these compounds were tested at 100 μM concentration using the 3-(4,5-dimethylthiazol-2-yl)-2,5-diphenyltetrazolium bromide (MTT) reduction and the neutral red (NR) uptake assays.
(§2) 5 Neurotoxic effects of the synthesized compounds were examined via MTT reduction (A) and NR uptake (B) assays in differentiated SH-SY5Y neuronal cells. Cells were incubated for 48 h with 1, 9, MIF-1 (100 μM), or 6-OHDA (125 μM). Compounds were solubilized in phosphate-buffered saline (PBS) solution. Results are reported as a percentage relative to the control (PBS) and shown as mean ± standard deviation. Data were collected from 16 to 36 wells across 9 independent experiments for the MTT reduction assay and from 12 wells and 3 independent experiments for the NR uptake assay. Statistical analyses were performed using the analysis of variance (ANOVA) test, followed by Tukey’s post hoc test (*p < 0.05 and ****p < 0.0001 vs control).
(§3) 4. Cytotoxicity in Human Neuronal SH-SY5Y Cells. The SH-SY5Y cell line was sourced from Sigma-Aldrich (Taufkirchen, Germany). DMEM medium [DMEM (1x) + GlutaMAX], DMEM/F-12, and Fetal Bovine Serum (FBS) were purchased from Gibco and Alfagene (Carcavelos, Portugal). Penicillin and Streptomycin were obtained from Biotecnómica (Porto, Portugal). Phosphate-buffered solution (PBS) without calcium and magnesium was acquired from Biochrom (Berlin, Germany). Trypsin/EDTA solution, 0.4% (w/v) trypan blue solution, NR solution, RA, and TPA were also obtained from Sigma-Aldrich (Germany). DMSO and HBSS (Hanks' Balanced Salt Solution) were purchased from Merck (Germany). MTT was sourced from Alfa Aesar (Kandel, Germany). 6-OHDA hydrobromide (CAS: 636-00-0) was acquired from Sigma-Aldrich (Germany).
(§4) Cell counts were performed on a Neubauer chamber using a Nikon Eclipse TS100 microscope from Nikon (Japan), and plate readings (MTT reduction and NR uptake assays) were conducted on a BioTek Synergy HT plate reader from BioTek (USA). Tissue culture flasks (25 cm²) and tissue culture 48 -well plates were purchased from TPP (Switzerland), while 5-, 10-, and 25-mL serological pipettes were obtained from Nerbe-Plus (Germany). Throughout all procedures, SH-SY5Y cells were maintained in a 5% CO2 incubator from Heraeus (Germany) at 37 °C. Cells were trypsinized after reaching confluence before experiments or for general culture maintenance.
(§5) Human neuroblastoma SH-SY5Y cells were maintained in complete DMEM medium supplemented with 10% (v/v) FBS and 1% (v/v) antibiotics (100 units/mL penicillin and 100 μg/mL streptomycin), at 37 °C in a 5% CO2 incubator throughout all procedures. […] After trypsin inactivation, cells were counted using a 0.4% (w/v) trypan blue solution and an optical microscope. […]

[2] = tested on: differentiated SH-SY5Y neuronal cells; test: Neutral red (NR) uptake assay in differentiated SH-SY5Y cells; format: cell-based, human; conditions: 125 μM, 48 h; positive control for cytotoxicity
Method: as §1, §2, §3, §4, §5

[3] = MTT reduction assay in differentiated SH-SY5Y cells; format: cell-based, human; conditions: human
Method: as §1, §2, §3, §4, §5

[4] = Neutral red (NR) uptake assay in differentiated SH-SY5Y cells; format: cell-based, human; conditions: human
Method: as §1, §2, §3, §4, §5

[5] = tested on: dopamine receptors isolated from bovine caudate tissue; set-up: method as in Johnson and co-workers; conditions: 100 nM; ref Johnson and co-workers; cited from earlier work
human D2R = human D2R (Homo sapiens, UniProt P14416); test: D2R functional assay in the absence of dopamine (intrinsic agonist activity); format: cell-based
Sequence of human D2R (P14416 whole entry): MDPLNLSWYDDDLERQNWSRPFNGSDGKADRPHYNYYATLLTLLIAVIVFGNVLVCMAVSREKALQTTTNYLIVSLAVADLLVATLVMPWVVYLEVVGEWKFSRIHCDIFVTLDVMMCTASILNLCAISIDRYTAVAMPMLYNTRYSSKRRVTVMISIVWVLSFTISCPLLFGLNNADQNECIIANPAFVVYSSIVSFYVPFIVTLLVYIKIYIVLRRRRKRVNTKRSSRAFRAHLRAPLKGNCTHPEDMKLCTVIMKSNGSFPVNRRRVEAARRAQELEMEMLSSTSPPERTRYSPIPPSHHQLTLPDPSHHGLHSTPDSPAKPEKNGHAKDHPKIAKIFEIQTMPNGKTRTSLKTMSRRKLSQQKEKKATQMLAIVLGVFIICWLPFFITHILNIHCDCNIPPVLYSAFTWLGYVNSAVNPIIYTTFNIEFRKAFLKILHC
Method: To exclude intrinsic agonist activity and validate the PAM mechanism of the best-performing MIF-1 derivatives 1 and 9, the same experiments were conducted in the absence of dopamine and compared to the concentration–response curve of dopamine alone (Figure ).
3 Concentration–response for compounds 1 and 9 obtained at human D2R in the absence of dopamine (DA), with the DA concentration–response curve included for reference. Data are presented as the mean ± standard deviation from three independent experiments.

Structure (SMILES): NCCc1cc(O)c(O)cc1O [6-OHDA, 6-hydroxydopamine, reference compound]
- MTT reduction, percentage relative to control (PBS) [1]: 45.64 ± 11.85%
- NR uptake, percentage relative to control (PBS) [2]: 57.26 ± 7.41%

Structure (SMILES): CC(C)C[C@H](NC(=O)[C@@H]1CCCN1)C(=O)NCC(N)=O [MIF-1, L-prolyl-L-leucylglycinamide, reference compound] (H-Pro-Leu-Gly-NH2)
- viability at 48 h, 100 µM [3]: 105 ± 6%
- viability at 48 h, 100 µM [4]: 97.8 ± 8.56%
- enhancement of specific binding of [3H]-ADTN (maximal effect) [5]: 46.2 ± 13.4%

Structure (SMILES): CC(C)C[C@H](NC(=O)[C@@H]1CCCCN1)C(=O)NCC(N)=O [compound 1, L-pipecolyl-L-leucylglycinamide] (HELM PEPTIDE1{[O=C([C@@H]1CCCCN1)[*:2]].L.G.[am]}$$$$V2.0)
- intrinsic agonistic effect (human D2R): no intrinsic agonistic effect
- viability at 48 h, 100 µM [3]: 105 ± 7.1%
- viability at 48 h, 100 µM [4]: 102 ± 3.48%
- enhancement of specific binding of [3H]-ADTN (maximal effect) [5]: 58.7 ± 9.3%

Structure (SMILES): COC(=O)CNC(=O)[C@H](CC(C)C)NC(=O)[C@@H]1CCCCN1 [compound 9, methyl L-pipecolyl-L-leucylglycinate] (HELM PEPTIDE1{[O=C([C@@H]1CCCCN1)[*:2]].L.G.[CO[*:1]]}$$$$V2.0)
- intrinsic agonistic effect (human D2R): no intrinsic agonistic effect
- viability at 48 h, 100 µM [3]: 105 ± 6.8%
- viability at 48 h, 100 µM [4]: 100 ± 2.09%
